# Columns and labels:
# [1] = test system: XPR1-dependent cell lines (RMGI); experiment: phosphate efflux in ovarian cancer cell line (FIG. 6A); format: cell-based; settings: as compared to RBD (protein inhibitor of XPR1)
# Description: (§1) FIG. 6A-FIG. 6B—IP6K inhibitors. FIG. 6A. Graph showing phosphate efflux in an ovarian cancer cell line treated with TNP or RBD_00. FIG. 6B. Graph showing cell viability in an ovarian cancer cell line treated with TNP or RBD_00 and the indicated CRISPR guide sequences.
# ovarian cancer cell line = experiment: cell viability in ovarian cancer cell line with CRISPR guide sequences (FIG. 6B); format: cell-based; settings: high doses; specificity to XPR1-dependent cell lines
# Description: as §1
structure (smiles),measurement,setting,value
"O=[N+]([O-])c1ccc(CNc2nc(NCc3cccc(C(F)(F)F)c3)nc3nc[nH]c23)cc1 [TNP, N2-(m-(trifluoromethyl)benzyl) N6-(p-nitrobenzyl)purine]",phosphate efflux,[1],did not observe a decrease in phosphate efflux
same,proliferation effects,ovarian cancer cell line,"Proliferation effects were observed at high doses of TNP, but the effects were not specific to XPR1-dependent cell lines"
